The data set in a line: Stability assay of Lipid A liposomes (LC-ELSD). To be noted: for degradation of Lipid A in liposome formulation containing antioxidant: pH=5, 37° C., day 5. On the procedure:
The stability of lipids in formulation were performed and monitored using the following HPLC and ELSD (Evaporative Light Scattering Detector) conditions.
Column: Waters Xbridge C18 2.5 μm 2.1×150 mm reversed phase column
Model: Polymer lab ELS 2100
Evaporator temperature: 90
Nebuliser temperature: 60
Fresh Lipid A liposome samples with loaded siRNA AD1661 were prepared as described herein. These Lipid A liposome samples were incubated in 100 mM NaOAc buffer (pH=5) at 37° C., and were subject to LC-ELSD analysis every other day.
In order to examine whether degradation of Lipid A can be prevented by addition of radical scavengers such as butylated hydroxytoluene (BHT or butylhydroxytoluene), Lipid A-containing liposome formulation LNP08 with lipids molar ratio of 60/7.5/31/1.5 (lipid A/DSPC/Cholesterol/PEG-C14 lipid) loaded with siRNA AD1661 containing BHT was tested in the stability assay as described above. These samples were subject to LC-ELSD analysis at day 5.
In order to examine whether the degradation of Lipid A can be prevented by antioxidants such as vitamin E, Lipid A-containing liposome formulation LNP09 loaded with siRNA AD1661 containing various amount of vitamin E were tested in the stability assay as described above. These samples were subject to LC-ELSD analysis at day 5. Chromatographs comparing the stability of various Lipid A liposome formulations with or without vitamin E were shown in FIG. 34.

With `Cc1cc(C(C)(C)C)c(O)c(C(C)(C)C)c1` [BHT, butylated hydroxytoluene], the “degradation of Lipid A in liposome formulation containing antioxidant” value is given as “inhibited”.

For the compound vitamin E, the “degradation of Lipid A in liposome formulation containing antioxidant” value was “inhibited”. Moreover, where the note is “LNP09, pH=5, day 5”, the “degradation of Lipid A, higher amount of antioxidant” value is given as “reverse effect”.

Source of the values: patent US20120101148A1, “LIPID FORMULATION” (ALNYLAM PHARMACEUTICALS, INC., priority 2009, published 2012).
